{"source": "patent US20170087120A1", "about": "“COMPOSITION FOR IMPROVING BIOAVAILBILITY AND EFFICACY OF TAXANE” (Florida A&M University, priority 2015, published 2017)", "key": {"MDA-MB-231 cell line": {"test_system": "MDA-MB-231 cell line", "experiment": "in vitro migration assay", "type": "cell-based", "text": "FIG. 2C depicts in vitro migration assay on MDA-MB-231 cell line."}, "CYP3A4": {"test_system": "CYP3A4", "experiment": "in vitro microsomal metabolism of taxane by human liver microsomes", "type": "in vitro ADME", "conditions": "for metabolism of docetaxel (DTX) by human liver microsomes: PPL added in reaction mixture with DTX", "procedure": "In FIG. 1A, in vitro microsomal metabolism studies of DTX by human liver microsomes were carried out in combination with PPL and compared with a known standard CYP3A4 inhibitor, Cyclosporin A (CYA)."}, "[1]": {"experiment": "in vivo oral pharmacokinetic in SD rats", "conditions": "coadministration with PPL vs DTX alone"}, "Caco-2 monolayer": {"test_system": "Caco-2 monolayer", "experiment": "permeability and efflux across Caco-2 monolayer", "conditions": "co-treated with piperlongumine", "text": "In FIG. 1B, Caco-2 is colon carcinoma cells used to evaluate the permeability and efflux of drug in GI track."}, "[2]": {"conditions": "cancer cell lines, with piperlongumine"}}}
{"smiles": "COc1cc(/C=C/C(=O)N2CCC=CC2=O)cc(OC)c1OC", "note": "[PPL, piperlongumine]", "values": [{"measurement": "% bridging of migration area", "setting": "MDA-MB-231 cell line; MDA-MB-231 cell line", "result": "significant reduction"}, {"measurement": "anti-migration effect of docetaxel", "setting": "MDA-MB-231 cell line; [2]", "result": "enhanced"}, {"measurement": "anti-migration effect of paclitaxel", "setting": "MDA-MB-231 cell line; [2]", "result": "enhanced"}, {"measurement": "metabolism of docetaxel (DTX) by human liver microsomes", "setting": "CYP3A4", "result": "significantly reduced"}, {"measurement": "metabolism of docetaxel (DTX) by human liver microsomes", "setting": "CYP3A4; listed as Piperlongumine", "result": "reduction"}, {"measurement": "half-life of DTX", "setting": "CYP3A4; human liver microsomes, PPL added in reaction mixture", "result": "doubled"}, {"measurement": "CYP3A4 inhibition", "setting": "CYP3A4; human liver microsomes, compared with Cyclosporin A (CYA)", "result": "comparable to inhibitor CYA"}, {"measurement": "metabolism of paclitaxel by human microsomal enzyme", "setting": "CYP3A4; with piperlongumine", "result": "reduction"}, {"measurement": "oral bioavailability of docetaxel (DTX)", "setting": "[1]", "result": "significant enhancement"}, {"measurement": "oral bioavailability of docetaxel (DTX)", "setting": "[1]; listed as Piperlongumine", "result": "significantly enhanced"}, {"measurement": "permeability co-efficient of docetaxel", "setting": "Caco-2 monolayer", "result": "enhancement"}]}
